Earlier results as cited in US20220054371A1, “TOOTH CLEANING COMPOSITION, TOOTH CLEANING AGENT, DENTAL CALCULUS REMOVAL ACCELERATOR, AND TOOTH CLEANING METHOD” (TOKUYAMA DENTAL CORPORATION, priority 2018, published 2022).

Conditions: 2.0 mg dental calculi in 1 ml of 10% aqueous solution, pH 3.1, 14 minutes

Structure (SMILES): CC(O)C(=O)O (stereo not shown) [lactic acid]
- weight reduction of dental calculi: 1.0 mg
